Earlier results, collected in patent publication US20240216299A1, “TRANSMUCOSAL THERAPEUTIC SYSTEM CONTAINING AGOMELATINE” (LTS LOHMANN Therapie-Systeme AG, priority 2019, published 2024).

[1] = patients with moderate hepatic impairment compared to healthy subjects

- oral absorption (oral): > 80%
- overall bioavailability (oral): less than 5%
- increase in AUC [1]: up to 140 fold
- increase in Cmax [1]: up to 140 fold
Structure (SMILES): COc1ccc2cccc(CCNC(C)=O)c2c1 [agomelatine, N-(2-(7-Methoxy-1-naphthyl)ethyl)acetamide]
